The test system of data set [1] is primary human T cells. Nature of the data set: CD5-HA knock-in with short ssDNA HDRT, knock-in efficiency by flow cytometry. It counts as cell-based. To be noted: short ssDNA CD5-HA knock-in construct, optimal concentrations, inhibitors for 24 hours after electroporation.
Description: (a) Evaluation of relative increase in % knock-in using an ssDNA CD5-HA knock-in construct over varied concentrations of 5 different small molecule inhibitors assessed by flow cytometry. […] (b) Comparison of relative % knock-in (top) and live cell counts (bottom) with small molecule inhibitor combinations. […] Panel a, b, and d were each performed with T cells from 2 independent healthy human blood donors. […] Error bars indicate standard deviation. CTS=Cas9 Target Site, HDRT=homology-directed-repair template, dsCTS=dsDNA+CTS HDRT, ssCTS=ssDNA+CTS HDRT, TSA=Trichostatin A, HDR Enhancer=IDT Alt-R HDR Enhancer, MT=M3814+TSA, MTX=M3814+TSA+XL413.
(§2) Trichostatin A (TSA) (Cayman Chemical), Nedisertib (M3814) (MedKoo Biosciences), XL413 hydrochloride (XL413) (Fisher Scientific), NU7441 (Fisher Scientific), and Alt-R HDR enhancer (IDT) were prepared and stored as aliquots per manufacturer guidelines. For experiments using small molecule inhibitors, cells were incubated with the indicated concentrations upon addition of fresh growth media following the 15 minute rescue step, and removed by media exchange after 24 hours.
A further data set has as its system CD5 target locus. Nature of the data set: Amplicon sequencing of the CD5 target locus, repair outcomes. Type of data set: cell-based, human. To be noted: small CD5-HA templates. An excerpt: We further examined repair outcomes at the genetic level by amplicon sequencing of the CD5 target locus with different versions of the small CD5-HA templates and inhibitor cocktails. […] The ratio of perfect:imperfect HDR events was also similar across the different types of templates. Intriguingly, […] […] Inclusion of HDR templates was associated with preferential reduction in the larger deletions characteristic of MMEJ (while smaller indels characteristic of NHEJ were more refractory in the absence of DNA-PK inhibition), in agreement with recent reports.

Data set [2] deals with primary human T cells. Nature of the data set: Live cell counts after electroporation with small molecule inhibitors. It counts as cell-based.
Description: (d) Evaluation of live cell counts with MT and MTX inhibitor combinations using 44 different knock-in constructs targeting a tNGFR marker across 22 different target loci with 2 gRNA per gene (g1 and g2). Panel a, b, and d were each performed with T cells from 2 independent healthy human blood donors. Panel c was performed with T cells from 4-6 independent healthy human blood donors. Error bars indicate standard deviation. CTS=Cas9 Target Site, HDRT=homology-directed-repair template, dsCTS=dsDNA+CTS HDRT, ssCTS=ssDNA+CTS HDRT, TSA=Trichostatin A, HDR Enhancer=IDT Alt-R HDR Enhancer, MT=M3814+TSA, MTX=M3814+TSA+XL413.
as §2
Data set [3] concerns primary human T cells. Type of data set: cell-based. To be noted: ssCTS tNGFR template +/- MT and MTX. An excerpt:
(a) Knock-in efficiencies for constructs targeting a tNGFR marker to 22 different target genome loci. (b-d) Comparison of large ssDNA and dsDNA HDRTs with CTS sites for knock-in of a pooled library of 2.6-3.6 kb polycistronic constructs targeted to the TRAC locus. Shown for each HDRT variation is (b) relative % knock-in in comparison to maximum for dsDNA+CTS templates, (c) relative knock-in cell count yields in comparison to maximum for dsDNA+CTS templates, and (d) representation of each library member in knock-in cells post-electroporation in comparison to construct representation the input plasmid pool. (e-g) Comparison of knock-in cell yields using ssDNA (red) and dsDNA HDRTs (blue) with CTS sites across a variety of primary human hematopoietic cell types. Note, different cell type comparisons are performed with different blood donors. All comparisons were performed using a knock-in construct generating an CLTA-mCherry fusion at the CLTA locus. Shown for each cell type using HDRT concentrations from 5-160 nM are (e) knock-in cell count yields, (f) maximum fold-change in knock-in count yields (relative to dsCTS templates), and (g) maximum % knock-in. […]
(a) Evaluation of relative increase in % knock-in using an ssDNA CD5-HA knock-in construct over varied concentrations of 5 different small molecule inhibitors assessed by flow cytometry. […]

The subject of a further data set is IL2RA. Nature of the data set: TIDE indel analysis, RNPs targeting exon 1 of IL2RA +/- M3814 and TSA. It counts as cell-based, human. Particulars: with addition of M3814 and TSA. Here is the method:
Media was refreshed after 24 hours in all samples, and cells were resuspended in growth media and IL-2. Six days after electroporations, genomic DNA was isolated from samples and amplicons were generated using PCR. Amplicons were sequenced and analyzed using TIDE (Tracking of Indels by Decomposition) to determine distinct changes in indel spectrums.

The subject of another data set is CTLA4 protein. Nature of the data set: CTLA4 gRNA screen: protein disruption by CTLA4 flow cytometric analysis. Type of data set: cell-based, human. Particulars: activated CD4+ T cells, flow cytometry. Here is the method: Flow Cytometry. All flow cytometry was performed on an Attune NxT flow cytometer with a 96-well autosampler (Thermo Fisher Scientific). Unless otherwise indicated, cells were collected 3-5 days post-electroporation, resuspended in FACS buffer (1%-2% BSA in PBS) and stained with Ghost Dye red 780 (Tonbo) and the indicated cell-surface and intracellular markers (see Table 2 for antibodies). For intracellular staining, cells were stained for surface markers and then prepared for intracellular staining using True-Nuclear Transcription Factor staining kits (Biolegend). […] Analysis was done using FlowJo v10 software. All gating strategies included exclusion of subcellular debris, singlet gating, and live:dead stain. Final graphs were produced with Prism (GraphPad), and figures were compiled with Illustrator (Adobe).
(§1) As a further example, we examined an ORF insertion within the CTLA4 gene (FIG. 8E). CTLA4 deficiency is caused most frequently by a haploinsufficiency with a disease-causing mutation on only 1 of 2 alleles. Exon-targeting strategies generate indels which could disrupt the normal allele and worsen disease. To avoid this possibility, we screened a panel of gRNA in intron 1, set forth in Table 3, to identify targets which cut efficiently without disrupting protein expression (FIG. 7B).
On the technique in general: A flow cytometer gives signals particle by particle.

The subject of another data set is CTLA4 gene. Nature of the data set: CTLA4 gRNA screen: cutting efficiency by TIDE indel analysis. To be noted: TIDE indel analysis at target locus. Type of data set: cell-based, human.
Description: as §1

Consider `COc1ccc([C@@H](O)c2cc(-c3ncnc4cc(N5CCOCC5)ccc34)c(F)cc2Cl)nn1` [M3814, (S)-(2-chloro-4-fluoro-5-(7-morpholinoquinazolin-4-yl)phenyl)(6-methoxypyridazin-3-yl)methanol], for which the “increase in knock-in efficiency” value with primary human T cells [1] is around 49%. Further, the “repair outcomes: frequency of indels” value in the data set with CD5 target locus is listed as “decreased frequency of indels”.
Regarding `O=c1cc(N2CCOCC2)oc2c(-c3cccc4c3sc3ccccc34)cccc12` [NU7441, 8-(dibenzo[b,d]thiophen-4-yl)-2-morpholino-4H-chromen-4-one], the “increase in knock-in efficiency” value in the data set with primary human T cells [1] was around 43%.
Regarding `CC(/C=C/C(=O)NO)=C\[C@@H](C)C(=O)c1ccc(N(C)C)cc1` [TSA, [R-(E,E)]-7-[4-(dimethylamino)phenyl]-N-hydroxy-4,6-dimethyl-7-oxo-2,4-heptadienamide], the “increase in knock-in efficiency” value in the data set with primary human T cells [1] is recorded as around 16%.
As for `Cl.O=c1[nH]c([C@@H]2CCCN2)nc2c1oc1ccc(Cl)cc12` [XL413, (S)-8-chloro-2-(pyrrolidin-2-yl)benzofuro[3,2-d]pyrimidin-4(3H)-one hydrochloride], the “reduction in cell counts” value in the data set with primary human T cells [2] (Day 11) is recorded as around 20%; in the data set with primary human T cells [2] (day 4 post-electroporation) it was around 50%. Moreover, the “increase in knock-in efficiency” value in the data set on primary human T cells [1] is around 46%.
Regarding “CD7 g1: gRNA targeting CD7, TCAGCTGCACTCGCCCGGCT (SEQ ID NO: 17), with corresponding tNGFR ssCTS template (listed as DNA, chemistry not given here)”, in the data set on primary human T cells [3], the “effect size of inhibitors: increase in knock-in efficiency” value is reported as “relatively little increase”.
In the case of “G377: crRNA/gRNA targeting IL2RA, TGAGCAGTCCCCACATCAGC (SEQ ID NO: 13) (listed as DNA, chemistry not given here)”, the cutting efficiency result in the data set on IL2RA was “not impacted”.
With “G509: gRNA, CTLA4 exon 1, target sequence CCTTGTGCCGCTGAAATCCA (SEQ ID NO: 63) (listed as DNA, chemistry not given here)”, the “%CTLA4 protein loss above background” value in the data set with CTLA4 protein is on record as 39.2%. Moreover, in the data set on CTLA4 gene, the “%indel” value is given as 78.2%.
In the same order, the values of “G510: gRNA, CTLA4 exon 1, target sequence CCTTGGATTTCAGCGGCACA (SEQ ID NO: 64) (listed as DNA, chemistry not given here)” are 16.65% and 47.7%.
In the same order, the values of “G511: gRNA, CTLA4 exon 1, target sequence GCACAAGGCTCAGCTGAACC (SEQ ID NO: 65) (listed as DNA, chemistry not given here)” are 32.4% and 71.85%.
Take “G512: gRNA, CTLA4 exon 1, target sequence CTCAGCTGAACCTGGCTACC (SEQ ID NO: 66) (listed as DNA, chemistry not given here)”: the “%CTLA4 protein loss above background” value in the data set on CTLA4 protein turned out to be 1.3%. Further, in the data set on CTLA4 gene, the “%indel” value is given as 12.15%.
Regarding “G513: gRNA, CTLA4 exon 1, target sequence TGAACCTGGCTACCAGGACC (SEQ ID NO: 67) (listed as DNA, chemistry not given here)”, the “%CTLA4 protein loss above background” value in the data set with CTLA4 protein is on record as 10.2%. The “%indel” value in the data set with CTLA4 gene is listed as 23.7%.
As for “G514: gRNA, CTLA4 exon 1, target sequence AGAAAAAACAGGAGAGTGCA (SEQ ID NO: 68) (listed as DNA, chemistry not given here)”, in the data set on CTLA4 protein, the “%CTLA4 protein loss above background” value was 47.45%. Besides, in the data set on CTLA4 gene, the “%indel” value is recorded as 94.35%.
In the same order, the values of “G515: gRNA, CTLA4 intron 1, target sequence TTGTATGCCAAACAGACTGG (SEQ ID NO: 69) (listed as DNA, chemistry not given here)” are 0% and 79.25%.
Regarding “G516: gRNA, CTLA4 intron 1, target sequence TGCATCTGAAACCCACACGT (SEQ ID NO: 70) (listed as DNA, chemistry not given here)”, in the data set on CTLA4 protein, the “%CTLA4 protein loss above background” value is on record as 0%. The “%indel” value in the data set on CTLA4 gene was determined as 61.95%.
In the same order, the values of “G517: gRNA, CTLA4 intron 1, target sequence CTCTGAAGAGCTGAAAACTG (SEQ ID NO: 71) (listed as DNA, chemistry not given here)” are 0% and 80.35%.
The matching figures for “G519: gRNA, CTLA4 intron 1, target sequence ACATATTTCATGGTAGAGCC (SEQ ID NO: 73) (listed as DNA, chemistry not given here)”: 0% and 89.65%.
The matching figures for “G520: gRNA, CTLA4 intron 1, target sequence GATATGACAAACAGAAGACC (SEQ ID NO: 4) (listed as DNA, chemistry not given here)”: 0% and 72.5%.
As to “PI3KCD g2: gRNA targeting PI3KCD, TAACAACGCAGGATGCCCCC (SEQ ID NO: 38), with corresponding tNGFR ssCTS template (listed as DNA, chemistry not given here)”, the “effect size of inhibitors: increase in knock-in efficiency” value in the data set with primary human T cells [3] is recorded as “up to 7 fold”.

For the origin of these results see US20250290099A1, “MATERIALS AND METHODS FOR TARGETED GENETIC MANIPULATIONS IN CELLS” (The Regents of the University of California, priority 2021, published 2025).
